The values below come from ChEMBL document CHEMBL4265999, “Design, Synthesis, and Characterization of Novel Small Molecules as Broad Range Antischistosomal Agents” (ACS Med Chem Lett, 2018).

The test system of one data set is Schistosoma mansoni. Briefly: Antischistosomal activity against Schistosoma mansoni infected in golden syrian hamster assessed as worm killing at 143 uM pretreated for 45 mins followed by compound washout measured after 14 days. Format: functional.
The next data set has as its system Schistosoma haematobium. Briefly: Antischistosomal activity against Schistosoma haematobium infected in golden syrian hamster assessed as worm killing at 143 uM pretreated for 45 mins followed by compound washout measured after 14 days. Format: functional.
In another data set the test system is Schistosoma japonicum. Briefly: Antischistosomal activity against Schistosoma japonicum infected in golden syrian hamster assessed as worm killing at 143 uM pretreated for 45 mins followed by compound washout measured after 14 days. The class given is functional.
The nature of data set [1]: Lipophilicity, log D of the compound. The following applies: octanol/water. The class given is physicochemical.
Data set [2] can be described thus: Dissociation constant, pKa of the compound. The class given is physicochemical.

With `O=[N+]([O-])c1cc(NC2CCCN(Cc3ccccn3)C2)ccc1CO` (stereo not given), in the data set on Schistosoma mansoni, the Activity came out at 0%.

Regarding `O=[N+]([O-])c1ccc(CN2CCC(Nc3ccc(CO)c([N+](=O)[O-])c3)C2)cc1` (stereo not given), the Activity in the data set on Schistosoma mansoni was 17%.

Regarding `O=[N+]([O-])c1cc(NC2CCN(Cc3cccc(C(F)(F)F)c3)C2)ccc1CO` (stereo not given), the Activity with Schistosoma mansoni turned out to be 93%; with Schistosoma haematobium it was 8%.

Consider `O=[N+]([O-])c1cc(NC2CCN(Cc3ccc(C(F)(F)F)cc3)CC2)ccc1CO`, for which the Activity in the data set with Schistosoma mansoni was 81%; in the data set on Schistosoma haematobium it was 0%.

For `O=[N+]([O-])c1cc(NC2CCCNC2)ccc1CO` (stereo not given), the Activity with Schistosoma mansoni is 50%.

As for `O=[N+]([O-])c1cc(NC2CCN(Cc3ccccn3)C2)ccc1CO` (stereo not given), in the data set with Schistosoma mansoni, the Activity came to 0%.

As to `O=[N+]([O-])c1cc(NC2CCCN(Cc3ccccc3)C2)ccc1CO` (stereo not given), the Activity with Schistosoma mansoni was 60%.

As to `O=[N+]([O-])c1cc(NC2CCN(Cc3ccccc3C(F)(F)F)C2)ccc1CO` (stereo not given), the Activity with Schistosoma mansoni is recorded as 27%.

For `O=[N+]([O-])c1cc(NC2CCN(Cc3ccc(C(F)(F)F)cc3)C2)ccc1CO` (stereo not given), the Activity in the data set with Schistosoma mansoni worked out at 100%; in the data set with Schistosoma haematobium it was 10%.

Regarding `O=[N+]([O-])c1cc(NC2CCCN(Cc3ccc(OC(F)(F)F)cc3)C2)ccc1CO` (stereo not given), the results for the Activity in the data set with Schistosoma mansoni, in the data set with Schistosoma haematobium and with Schistosoma japonicum were 40%, 43% and 10%, respectively.

Regarding `O=[N+]([O-])c1cc(NC2CCN(Cc3ccccc3)C2)ccc1CO` (stereo not given), the Activity in the data set on Schistosoma mansoni was found to be 75%.

Turning to `COc1ccccc1CN1CCC(Nc2ccc(CO)c([N+](=O)[O-])c2)C1` (stereo not given), in the data set with Schistosoma mansoni, the Activity came out at 7%.

Turning to `O=[N+]([O-])c1cc(NC2CCCN(Cc3ccccc3C(F)(F)F)C2)ccc1CO` (stereo not given), the results for the Activity in the data set on Schistosoma mansoni, in the data set with Schistosoma haematobium and in the data set on Schistosoma japonicum were 75%, 40% and 83%, respectively. The compound also showed a logD in data set [1] of 3.27. The same compound displayed a pKa in data set [2] of 5.9.

For the compound `Cn1cncc1CN1CCCC(Nc2ccc(CO)c([N+](=O)[O-])c2)C1` (stereo not given), the Activity in the data set with Schistosoma mansoni was determined as 20%.

As to `O=[N+]([O-])c1cc(NC2CCN(Cc3ccccc3C(F)(F)F)CC2)ccc1CO`, the Activity in the data set with Schistosoma mansoni is reported as 20%.

Consider `O=[N+]([O-])c1cc(NC2CCN(Cc3ccc(OC(F)(F)F)cc3)CC2)ccc1CO`, for which the Activity worked out at 97% in the data set on Schistosoma mansoni and 14% in the data set with Schistosoma haematobium.

Regarding `CC(C)N1CCC(Nc2ccc(CO)c([N+](=O)[O-])c2)C1` (stereo not given), in the data set with Schistosoma mansoni, the Activity turned out to be 40%.

Take `O=[N+]([O-])c1cc(NC2CCCN(CCc3ccccc3)C2)ccc1CO` (stereo not given): in the data set with Schistosoma mansoni, the Activity was determined as 40%.

`O=[N+]([O-])c1cc(NC2CCN(Cc3c[nH]c4ccccc34)C2)ccc1CO` (stereo not given): the Activity with Schistosoma mansoni turned out to be 85%.

Consider `O=[N+]([O-])c1cc(NC2CCN(Cc3ccccc3OC(F)(F)F)C2)ccc1CO` (stereo not given), for which the results for the Activity in the data set on Schistosoma mansoni and in the data set with Schistosoma haematobium were 100% and below 40%, respectively.

In the case of `O=[N+]([O-])c1cc(NC2CCN(Cc3cccc(OC(F)(F)F)c3)C2)ccc1CO` (stereo not given), in the data set with Schistosoma mansoni, the Activity came to 60%.

`CC(C)N1CCCC(Nc2ccc(CO)c([N+](=O)[O-])c2)C1` (stereo not given): the Activity in the data set on Schistosoma mansoni stood at 10%.

For the compound `O=[N+]([O-])c1cc(NC2CCCN(Cc3ccccc3OC(F)(F)F)C2)ccc1CO` (stereo not given), the Activity with Schistosoma mansoni is on record as 84%; with Schistosoma haematobium, below 40%.

As for `Cn1cncc1CN1CCC(Nc2ccc(CO)c([N+](=O)[O-])c2)C1` (stereo not given), the Activity in the data set with Schistosoma mansoni is reported as 0%.

With `O=[N+]([O-])c1cc(NC2CCN(Cc3ccccc3F)C2)ccc1CO` (stereo not given), the Activity with Schistosoma mansoni was determined as 30%.

On to `O=[N+]([O-])c1cc(NC2CCN(Cc3ccc(OC(F)(F)F)cc3)C2)ccc1CO` (stereo not given), for which the figures for the Activity in the data set with Schistosoma mansoni, with Schistosoma haematobium and in the data set on Schistosoma japonicum were 87%, 40% and 0%, respectively.

For the compound `O=[N+]([O-])c1cc(NC2CCN(Cc3ccc(Cl)cc3Cl)C2)ccc1CO` (stereo not given), the Activity with Schistosoma mansoni is on record as 17%.

Turning to `O=[N+]([O-])c1cc(NC2CCN(CCc3ccccc3)C2)ccc1CO` (stereo not given), the Activity with Schistosoma mansoni is 7%.

For the compound `O=[N+]([O-])c1cc(NC2CCCN(Cc3cccc(C(F)(F)F)c3)C2)ccc1CO` (stereo not given), the Activity with Schistosoma mansoni was found to be 100%; in the data set with Schistosoma haematobium it was 2%; in the data set with Schistosoma japonicum, 2%.

On to `O=[N+]([O-])c1cc(NC2CCNC2)ccc1CO` (stereo not given), for which the Activity in the data set with Schistosoma mansoni was 10%.

Take `O=[N+]([O-])c1cc(NC2CCCN(Cc3c[nH]c4ccccc34)C2)ccc1CO` (stereo not given): the Activity in the data set with Schistosoma mansoni amounted to 26%.

In the case of `CC(C)NCC1CCc2cc(CO)c([N+](=O)[O-])cc2N1` (stereo not given) [OXAMNIQUINE], the Activity in the data set on Schistosoma mansoni was 50 - 85%; in the data set on Schistosoma haematobium, 0%; in the data set with Schistosoma japonicum it was 0%.

Usually logD stands for the decadic logarithm of the distribution of all forms, ionised or not, between an organic phase and buffer at a given pH. The term pKa denotes the pH at which an ionisable group is half protonated. The low end stands for a group that gives up its proton readily, the high end for a group that holds its proton tightly.
